Measurements reported in patent US4605744A, “Imidazole derivatives” (Hoffmann-La Roche Inc., priority 1985, dated 1986).
Counter-ions that a name gives are not always drawn.

Key:
S. pyogenes 4 [1] = assay: In vivo antibacterial activity (PD50); settings: Streptococcus pyogenes, 4, sc, sc; Table 9; read-out: PD50
S. faecalis C1 = assay: In vivo antibacterial activity (PD50); settings: Enterococcus faecalis, C1; sc; Table 9
S. typhi P58A = assay: In vitro antibacterial activity (MIC); type: cell-based; settings: Salmonella enterica, TYPHI
Procedure, shortened: (§1)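 Twofold-style dilution series (128 to 0.008 μg/ml) made in Mueller-Hinton broth, dispensed, then inoculated with 1.5 μl of a 10^-2 overnight-culture dilution. Plates sealed, held overnight at 37° C, inspected with a viewer.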

K. pneumoniae A = assay: In vitro antibacterial activity (MIC); type: cell-based; settings: Klebsiella pneumoniae, K. pneumoniae A; read-out: MIC
Procedure, shortened: as §1

P. vulgaris ATCC 6380 = assay: In vitro antibacterial activity (MIC); type: cell-based; settings: Proteus vulgaris, ATCC6380, P. vulgaris ATCC 6380; read-out: MIC
Procedure, shortened: as §1

E. cloacae P99 = assay: In vitro antibacterial activity (MIC); type: cell-based; settings: Enterobacter cloacae, P99, E. cloacae P99
Procedure, shortened: as §1

P. rettgeri ATCC 9250 = assay: In vitro antibacterial activity (MIC); type: cell-based; settings: Providencia rettgeri, ATCC9250, P. rettgeri ATCC 9250; read-out: MIC
Procedure, shortened: as §1

S. pneumoniae 6302 = assay: In vitro antibacterial activity (MIC); type: cell-based; settings: Streptococcus pneumoniae, 6302, S. pneumoniae 6302; read-out: MIC
Procedure, shortened: as §1

P. mirabilis 90 = assay: In vitro antibacterial activity (MIC); type: cell-based; settings: Proteus mirabilis, 90, P. mirabilis 90; read-out: MIC
Procedure, shortened: as §1

S. pneumoniae SC = assay: In vitro antibacterial activity (MIC); type: cell-based; settings: Streptococcus pneumoniae, read-out: MIC
Procedure, shortened: as §1

K. pneumoniae 5096 = assay: In vitro antibacterial activity (MIC); type: cell-based; settings: Klebsiella pneumoniae; K. pneumoniae 5096; read-out: MIC
Procedure, shortened: as §1

E. coli R-563 = assay: In vitro antibacterial activity (MIC); type: cell-based; settings: Escherichia coli, R563, E. coli R-563; read-out: MIC
Procedure, shortened: as §1

E. cloacae 5699 = assay: In vitro antibacterial activity (MIC); type: cell-based; settings: Enterobacter cloacae, 5699, E. cloacae 5699; read-out: MIC
Procedure, shortened: as §1

S. pneumoniae 6301 = assay: In vitro antibacterial activity (MIC); type: cell-based; settings: Streptococcus pneumoniae, 6301
Procedure, shortened: as §1

P. mirabilis 190 = assay: In vitro antibacterial activity (MIC); type: cell-based; settings: Proteus mirabilis, 190, P. mirabilis 190; read-out: MIC
Procedure, shortened: as §1

C. freundii 8ASM = assay: In vitro antibacterial activity (MIC); type: cell-based; settings: Citrobacter freundii, 8ASM, C. freundii 8ASM; read-out: MIC
Procedure, shortened: as §1

P. aeruginosa 503-56 [2] = assay: In vitro antibacterial activity (MIC); type: cell-based; settings: Pseudomonas aeruginosa, 50356, P. aeruginosa 503-56; read-out: MIC
Procedure, shortened: as §1

S. pyogenes 4 [3] = assay: In vitro antibacterial activity (MIC); type: cell-based; settings: Streptococcus pyogenes, 4, S. pyogenes 4; read-out: MIC
Procedure, shortened: as §1

E. cloacae 24 = assay: In vitro antibacterial activity (MIC); type: cell-based; settings: Enterobacter cloacae, 24, E. cloacae 24; read-out: MIC
Procedure, shortened: as §1

S. marcescens S3 = assay: In vitro antibacterial activity (MIC); type: cell-based; settings: Serratia marcescens; S. marcescens S3; read-out: MIC
Procedure, shortened: as §1

C. freundii CDC6 = assay: In vitro antibacterial activity (MIC); type: cell-based; settings: Citrobacter freundii, CDC6, C. freundii CDC6; read-out: MIC
Procedure, shortened: as §1

P. mirabilis 503-1136 = assay: In vitro antibacterial activity (MIC); type: cell-based; settings: Proteus mirabilis, 5031136, P. mirabilis 503-1136; read-out: MIC
Procedure, shortened: as §1

P. aeruginosa 8710 = assay: In vitro antibacterial activity (MIC); type: cell-based; settings: Pseudomonas aeruginosa; P. aeruginosa 8710; read-out: MIC
Procedure, shortened: as §1

E. aerogenes 8 = assay: In vivo antibacterial activity (PD50); settings: Klebsiella aerogenes, 8; sc; Table 9; read-out: PD50
E. coli BC5524 = assay: In vivo activity alone and in combination (PD50, FIC); settings: Escherichia coli, BC5524; sc; alone; read-out: PD50 (alone)
Method: (§2) In Tables 9-14, the results of the in vivo activity against certain microorganisms of compounds I, M and N as given. […] The results in these Tables and the PD50 's were determined by the procedure set forth on page 160 in Beskid et al., Antimicrobial Agents and Chemotherapy, Vol. 20, No. 2 pp. 159-167 (Aug. 1981) for "in vivo studies".
(§3) In the Tables, the fractional inhibitory concentration index (FIC) for synergistic combination of a compound of this invention (X) with known antibiotic compound (Y) is determined by the following formula:
(§4) FIC=(PD50 (X combination)/PD50 (X alone)+(PD50 (Y
(§5) combination)/PD50 (Y alone)
(§6) An FIC of ≤0.60 is indicative of synergy. The synergy rating in the Tables is as follows:
(§7) In the combination, the parts are parts by weight, i.e. 10 to 1 is 10 parts by weight to 1 part by weight.

E. cloacae 4633 = assay: as above; settings: Enterobacter cloacae, 4633; sc; alone; read-out: PD50 (alone)
Method: as §2, §3, §4, §5, §6, §7

K. pneumoniae 503-990A = assay: as above; settings: Klebsiella pneumoniae, 503990A, sc, alone
Method: as §2, §3, §4, §5, §6, §7

K. pneumoniae R2296 = assay: as above; settings: Klebsiella pneumoniae, sc, alone
Method: as §2, §3, §4, §5, §6, §7

K. pneumoniae 39 = assay: as above; settings: Klebsiella pneumoniae, 39, sc, alone
Method: as §2, §3, §4, §5, §6, §7

P. aeruginosa 503-56 [4] = assay: In vivo antibacterial activity (PD50); settings: Pseudomonas aeruginosa, 50356, sc, Table 9
E. coli 257 [5] = assay: In vivo antibacterial activity (PD50); settings: Escherichia coli, 257, sc, Table 9
E. coli 257 [6] = assay: In vitro antibacterial activity (MIC, Mueller-Hinton broth); type: cell-based; settings: Escherichia coli, 257, E. coli 257; read-out: MIC
Method: Drug dilutions are prepared in Mueller-Hinton broth ranging from 128 to 0.008 μg/ml. The diluted agents are dispensed in 100 μl amounts into the wells of a 96-well tray and used immediately or frozen at -10° to -70° C. until needed. Using an automated inoculator, 1.5 μl of a 10^-2 dilution of an overnight culture is added to each well of the tray. The tops of the trays are then sealed using transparent tape and incubated overnight at 37° C. The trays are examined with the aid of a viewer. The lowest concentration at which no growth is observed is considered to be the minimum inhibitory concentration (MIC).

Compound `CC1(C)S[C@@H]2[C@H](N=CN3CCC(CCCn4ccnc4N)CC3)C(=O)N2[C@H]1C(=O)O` [I, [2S-(2alpha,5alpha,6beta)]-6-[[[4-[3-(2-amino-1H-imidazol-1-yl)propyl]piperidinyl]methylene]amino]-3,3-dimethyl-7-oxo-4-thia-1-azabicyclo[3.2.0]hpetane-2-carboxylic acid hydrochloride] has an ED50 (S. pyogenes 4 [1]) of 11 mg/kg, an ED50 (S. faecalis C1) of over 250 mg/kg and an MIC (S. typhi P58A) of 0.062 µg/mL. The MIC (K. pneumoniae A) was under 0.008 µg/mL, the MIC (P. vulgaris ATCC 6380) was 0.062 µg/mL and the MIC (E. cloacae P99) was 0.031 µg/mL. The MIC (P. rettgeri ATCC 9250) was 0.25 µg/mL, the MIC (S. pneumoniae 6302) was 4 µg/mL and the MIC (P. mirabilis 90) was 4 µg/mL. It also gave an MIC (S. pneumoniae SC) of 4 µg/mL, an MIC (K. pneumoniae 5096) of over 128 µg/mL and an MIC (E. coli R-563) of 0.062 µg/mL. For the same compound, the MIC (E. cloacae 5699) was 0.062 µg/mL, the MIC (S. pneumoniae 6301) was 2 µg/mL and the MIC (P. mirabilis 190) was 0.125 µg/mL. The MIC (C. freundii 8ASM) was 0.031 µg/mL, the MIC (P. aeruginosa 503-56 [2]) was 128 µg/mL and the MIC (S. pyogenes 4 [3]) was 1 µg/mL. It also gave an MIC (E. cloacae 24) of 0.125 µg/mL, an MIC (S. marcescens S3) of 0.062 µg/mL and an MIC (C. freundii CDC6) of 0.031 µg/mL. It also gave an MIC (P. mirabilis 503-1136) of 4 µg/mL, an MIC (P. aeruginosa 8710) of 128 µg/mL and an ED50 (E. aerogenes 8) of over 250 mg/kg. For the same compound, the ED50 (E. coli BC5524) was over 250 mg/kg, the ED50 (E. cloacae 4633) was 6.4 mg/kg and the ED50 (K. pneumoniae 503-990A; Table 14 line (1)) was under 2 mg/kg. It also gave an ED50 (K. pneumoniae 503-990A; Table 14 line (2)) of under 2 mg/kg, an ED50 (K. pneumoniae R2296) of over 250 mg/kg and an ED50 (K. pneumoniae 39) of 115 mg/kg. It also gave an ED50 (P. aeruginosa 503-56 [4]) of over 250 mg/kg, an ED50 (E. coli 257 [5]) of under 0.2 mg/kg and an MIC (E. coli 257 [6]) of 0.031 µg/mL.
